Laboratory results reported in article PMC3915196, “Asymmetric Synthesis of Spirocyclic 2-Benzopyrans for Positron Emission Tomography of σ1 Receptors in the Brain” (Pharmaceuticals, 2014).
Like-named read-outs stand apart in the source and are kept apart here. Marks after values point to notes of the source that are not given here.

Tests used:
[1] = molecular target: T1, σ2 receptor (Rattus norvegicus, UniProt Q5U3Y7); experiment: σ2 receptor binding assay with [3H]DTG, σ1 sites masked with (+)-pentazocine; conditions: for inhibition at 1 µM: read-out: Inhibition of radioligand binding (σ2)
T1 construct: two rat livers were cut into small pieces and homogenized with the Potter; tissue Harlan-Winkelmann, Borchen, Germany; host or cells: rat liver membrane homogenate
T1 sequence (Q5U3Y7 1-176): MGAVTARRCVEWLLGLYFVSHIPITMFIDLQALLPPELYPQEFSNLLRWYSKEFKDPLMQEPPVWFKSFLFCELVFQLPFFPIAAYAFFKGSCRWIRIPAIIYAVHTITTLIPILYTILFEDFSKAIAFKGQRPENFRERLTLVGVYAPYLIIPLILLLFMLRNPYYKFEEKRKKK

[2] = molecular target: T2, σ1 receptor (Cavia porcellus, UniProt Q60492); experiment: σ1 receptor binding assay with [3H]-(+)-pentazocine; design: species or system guinea pig
T2 construct: five guinea pig brains were homogenized with the Potter; tissue Harlan-Winkelmann, Borchen, Germany; host or cells: guinea pig brain (cortex) membrane homogenate

[3] = molecular target: T3, σ1 receptors in the brain (Mus musculus, UniProt O55242); design: method as in PMID 21072511; conditions: 30 min after injection, 18F-labeled tracer; cited from earlier work
T3 construct: tissue Medizinisch-Experimentelles Zentrum, Universität Leipzig; host or cells: brain of female CD1 mice (in vivo / ex vivo autoradiography)

[4] = cited from earlier work
[5] = HPLC calibration; cited from earlier work
[6] = molecular target: T2, σ1 receptor; conditions: earlier 2-benzofuran tracers, quoted for comparison, no reference printed at the values; cited from earlier work
[7] = phosphate buffer, Dulbecco buffer and native mouse plasma over 30 min at 37 °C
Method: For pharmacological characterization of the radiotracer [^18F]-(R)-20, chemical stability was investigated in vitro in different buffer systems over 2 h at 40 °C: 50 mM phosphate buffer (pH 7.2), phosphate-saline-solution (Dulbecco; pH 7.2) and 0.01 M TRIS-HCl (pH 7.4).

[8] = molecular target: T3, σ1 receptors in the brain; experiment: Brain uptake and ex vivo autoradiography under control and haloperidol blocking conditions; type: in vivo
Method: The experimental protocols were approved by the local ethics committee and conducted according to the national and EU regulations for animal research. Female CD1 mice (10–12 weeks old, 33.8 ± 6.2 g) were obtained from the Medizinisch-Experimentelles Zentrum, Universität Leipzig and housed under a 12 h/12 h light/dark cycle with free access to food and water for at least 24 h before experiments. Animals were sacrificed by CO2 asphyxiation after anaesthesia with O2/CO2 mixture.
The tracer distribution in the brain under control and blocking conditions was determined by ex vivo autoradiography studies. […] Animals were sacrificed at 30 min p.i. Blood was collected by heart puncture, the brain quickly removed and transferred on ice, and all samples were weighed. Radioactivity in brain and plasma samples was counted using an automated γ-counter and expressed as percentage of injected dose per gram (%ID/g). For autoradiography, the brain hemispheres were frozen immediately after isolation in 2-methylbutane (Carl Roth, Karlsruhe, Germany) at −30 °C (>2 min). Serial sagittal slices of 12 µm thickness were cut on a cryostat (Microm, Walldorf, Germany) from approx. midline, +500 µm, +1,000 µm and +1,500 µm. Slices were exposed overnight on an imaging plate (SR 2025, Fuji, Tokyo, Japan), scanned afterwards with a high-resolution phosphorimager (HD-CR 35 Bio, raytest). 2D densitometry of the whole brain was performed with AIDA software (raytest).

[9] = female, CD1, mouse, in vivo
[10] = rat liver membranes, [3H]DTG, read-out: Ki ± SEM σ2
[11] = at a concentration of 1 µM, rat liver membranes, [3H]DTG
[12] = established PET tracers, quoted for comparison, no reference given

T3 sequence (O55242 whole entry): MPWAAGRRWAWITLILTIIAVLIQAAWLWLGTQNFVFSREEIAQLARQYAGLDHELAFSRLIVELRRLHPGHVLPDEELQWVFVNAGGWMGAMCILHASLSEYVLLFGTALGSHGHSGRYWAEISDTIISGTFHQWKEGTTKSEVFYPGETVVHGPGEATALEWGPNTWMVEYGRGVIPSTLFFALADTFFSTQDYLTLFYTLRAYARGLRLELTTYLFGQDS
T2 sequence (Q60492 whole entry): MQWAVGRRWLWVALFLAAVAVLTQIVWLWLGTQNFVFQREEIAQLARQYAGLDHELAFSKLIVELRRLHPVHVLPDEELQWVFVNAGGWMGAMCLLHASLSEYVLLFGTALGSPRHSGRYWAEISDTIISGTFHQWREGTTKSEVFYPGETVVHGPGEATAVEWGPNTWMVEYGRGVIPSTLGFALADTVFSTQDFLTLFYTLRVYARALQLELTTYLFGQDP

O[C@@H]1COC2(CCN(Cc3ccccc3)CC2)c2ccccc21
melting point: 53 °C

CCO[C@@H]1COC2(CCN(Cc3ccccc3)CC2)c2ccccc21 [(S)-16, (S)-1′-Benzyl-4-ethoxy-3,4-dihydrospiro[[2]benzopyran-1,4′-piperidine]]
inhibition at 1 µM [1]: 31% | Ki [2]: 4.2 ± 0.8 nM | Selectivity σ1/σ2 [2]: >235

CC(C)(C)OC(=O)N1CCC2(CC1)OC[C@H](O)c1ccccc12 [(R)-11, tert-Butyl (R)-4-hydroxy-3,4-dihydrospiro[[2]benzopyran-1,4′-piperidine]-1′-carboxylate]
melting point: 161 °C | Ki [1, 10]: 2150 nM | Ki ([2]; guinea pig brain membranes, [3H]-(+)-pentazocine, three independent experiments, read-out: Ki ± SEM σ1): 5.2 ± 0.3 nM | Selectivity σ1/σ2 ([2]; ratio of σ2 and σ1 Ki values): 413

CCO[C@H]1COC2(CCN(Cc3ccccc3)CC2)c2ccccc21 [(R)-16, (R)-1′-Benzyl-4-ethoxy-3,4-dihydrospiro[[2]benzopyran-1,4′-piperidine]]
Ki [1]: 954 nM | Ki [2]: 5 ± 1.2 nM | Selectivity σ1/σ2 [2]: 191

FCCO[C@H]1COC2(CCN(Cc3ccccc3)CC2)c2ccccc21 [(R)-20, (R)-1′-Benzyl-4-(2-fluoroethoxy)-3,4-dihydrospiro[[2]benzopyran-1,4′-piperidine]]
inhibition at 1 µM [1, 11]: 14% | Ki [2]: 4.7 ± 0.7 nM | Selectivity σ1/σ2 [2]: >210

CCOC(=O)CO[C@H]1COC2(CCN(Cc3ccccc3)CC2)c2ccccc21 [(R)-18, Ethyl (R)-2-[(1′-benzyl-3,4-dihydrospiro[[2]benzopyran-1,4′-piperidin]-4-yl)oxy]acetate]
Ki [1]: 552 nM | Ki [2]: 4 ± 0.8 nM | Selectivity σ1/σ2 [2]: 138 | eudismic ratio (σ1 affinity) [2]: 29

FCCC1OC2(CCN(Cc3ccccc3)CC2)c2ccccc21 (stereo not drawn) [[^18F]2b]
total-to-nonspecific binding ratio [3]: approx. 3 | parent compound in liver samples ([4]; mouse, in vivo): 69% | unchanged parent compound in plasma ([4]; mouse, in vivo): 89%

FCCCCC1OC2(CCN(Cc3ccccc3)CC2)c2ccccc21 (stereo not drawn) [Compound 2d]
total-to-nonspecific binding ratio [3]: approx. 3

O[C@H]1COC2(CCN(Cc3ccccc3)CC2)c2ccccc21
melting point: 55 °C

CO[C@@H]1COC2(CCN(Cc3ccccc3)CC2)c2ccccc21 [(S)-15, (S)-1′-Benzyl-4-methoxy-3,4-dihydrospiro[[2]benzopyran-1,4′-piperidine]]
Ki [1, 10]: 676 nM | Ki [2]: 8.8 ± 1.1 nM | Selectivity σ1/σ2 [2]: 77

c1ccc2ccccc2c1 [naphthalene]
logD of reference compounds used for calibration [5]: 3.6

FCCC1OC2(CCN(Cc3ccccc3)CC2)c2ccccc21 (stereo not drawn) [fluspidine]
Ki [6]: 0.59 nM

CO[C@H]1COC2(CCN(Cc3ccccc3)CC2)c2ccccc21 [(R)-15, (R)-1′-Benzyl-4-methoxy-3,4-dihydrospiro[[2]benzopyran-1,4′-piperidine]]
Ki [1, 10]: 1150 nM | Ki [2]: 1.2 ± 0.3 nM | Selectivity σ1/σ2 [2]: 958 | eudismic ratio (σ1 affinity) [2]: 7

c1ccc2c(c1)-c1cccc3cccc-2c13 [fluoranthene]
logD of reference compounds used for calibration [5]: 5.1

OCCO[C@@H]1COC2(CCN(Cc3ccccc3)CC2)c2ccccc21 [(S)-19, (S)-2-[(1′-Benzyl-3,4-dihydrospiro[[2]benzopyran-1,4′-piperidin]-4-yl)oxy]ethanol]
inhibition at 1 µM [1, 11]: 0% | Ki [2]: 64 ± 0.9 nM | Selectivity σ1/σ2 [2]: >15

[18F]CCCC1OC2(CCN(Cc3ccccc3)CC2)c2ccccc21 (stereo not drawn) [[^18F]2c]
parent compound in liver samples [4, 12]: 65% | unchanged parent compound in plasma [4, 12]: 86%

FCCO[C@@H]1COC2(CCN(Cc3ccccc3)CC2)c2ccccc21 [(S)-20, (S)-1′-Benzyl-4-(2-fluoroethoxy)-3,4-dohydrospiro[[2]benzopyran-1,4′-piperidine]]
inhibition at 1 µM [1, 11]: 10% | Ki [2]: 5.9 ± 2.9 nM | Selectivity σ1/σ2 [2]: >170

Clc1ccccc1 [chlorobenzene]
logD of reference compounds used for calibration [5]: 2.8

tert-Butyl (S)-4-hydroxy-3,4-dihydrospiro[[2]benzopyran-1,4′-piperidine]-1′-carboxylate [(S)-11]
Inhibition of radioligand binding (σ2) ([1]; 1 µM): 24% * | Selectivity σ1/σ2 [2]: >55 | Ki ([2]; read-out: Ki ± SEM σ1): 18 ± 5 nM

OCCO[C@H]1COC2(CCN(Cc3ccccc3)CC2)c2ccccc21 [(R)-19, (R)-2-[(1′-Benzyl-3,4-dihydrospiro[[2]benzopyran-1,4′-piperidin]-4-yl)oxy]ethanol]
inhibition at 1 µM [1, 11]: 0% | Ki [2]: 55 ± 1 nM | Selectivity σ1/σ2 [2]: >15

[18F]CCO[C@H]1COC2(CCN(Cc3ccccc3)CC2)c2ccccc21 [[^18F]-(R)-20]
defluorination [7]: No defluorination was observed | Ki [2]: 4.7 nM | mean decrease of radiotracer uptake in slices of the whole brain hemisphere with haloperidol ([8]; 2D densitometry of ex vivo autoradiographs): about 40% | total-to-nonspecific binding ratio ([8]; mouse brain, 30 min p.i.): 1.5 | uptake of radioactivity in the brain ([8]; mouse, 30 min p.i., blocking conditions, co-application of 1 mg/kg haloperidol): 2.24 % ID/g | uptake of radioactivity in the brain ([8]; mouse, 30 min p.i., control conditions): 3.4 % ID/g | reduction of brain uptake by haloperidol co-application ([8]; mouse, 30 min p.i., from %ID/g values): 34% | non-metabolized radiotracer of total radioactivity in urine ([9]; 0.5 h): 2-20% | unchanged parent radiotracer in liver ([9]; 30 min): ~56%

CCOC(=O)CO[C@@H]1COC2(CCN(Cc3ccccc3)CC2)c2ccccc21 [(S)-18, Ethyl (S)-2-[(1′-benzyl-3,4-dihydro-3,4-dihydrospiro[2-benzopyran-1,4′-piperidin]-4-yl)oxy]acetate]
inhibition at 1 µM [1]: 12% | Ki [2]: 114 nM | Selectivity σ1/σ2 [2]: >5
